Patent US20240065988A1, “COMBINED USE OF KETAMINE AND RETIGABINE (EZOGABINE) FOR THE TREATMENT OF PSYCHIATRIC DISORDERS” (Yeda Research and Development Co. Ltd., priority 2021, published 2024)

System: single cells from the ventral hippocampus (vHipp)
Test: Single-cell RNA sequencing (scRNA-seq) of the ventral hippocampus after ketamine treatment; differential expression per cell type
Settings: for Mean-Ket / logFC / Change: Glut Neurons
[1] = Microglia, ketamine 10 mg/kg i.p. vs saline
[2] = OPCs, ketamine 10 mg/kg i.p. vs saline
[3] = Oligodendrocytes, ketamine 10 mg/kg i.p.
[4] = Oligodendrocytes, ketamine 10 mg/kg i.p. vs saline

## CNC1(c2ccccc2Cl)CCCCC1=O (racemic) [ketamine, (R,S)-ketamine]
Lsm8
  Mean-Ket: 1.062
  logFC: −0.125
Map1lc3b
  Change: Down
  Mean-Ket: 1.349
  logFC: −0.132
Map4
  Change: Down
  Mean-Ket: 2.794
  logFC: −0.101
Matr3
  Change: Down
  Mean-Ket: 1.685
  logFC: −0.160
Microglia, ketamine 10 mg/kg i.p.
  Eef1akmt3 Mean-Ket: 1.718
[1]
  Eef1akmt3 Change: Up
  Eef1akmt3 logFC: 0.394
Mmachc
  Change: Down
  Mean-Ket: 2.750
  logFC: −0.102
Mrpl48
  Change: Up
  Mean-Ket: 1.060
  logFC: 0.180
Mtg2
  Change: Down
  Mean-Ket: 2.635
  logFC: −0.091
Ndufc1
  Change: Down
  Mean-Ket: 1.039
  logFC: −0.150
Nedd4
  Change: Down
  Mean-Ket: 1.358
  logFC: −0.161
Nop58
  Change: Down
  Mean-Ket: 2.645
  logFC: −0.096
Nvl
  Change: Up
  Mean-Ket: 1.070
  logFC: 0.148
OPCs
  genes differentially expressed exclusively in one cell type: 3
OPCs, ketamine 10 mg/kg i.p.
  Akap5 Mean-Ket: 3.963
  Eef1akmt3 Mean-Ket: 1.870
  Ilf2 Mean-Ket: 1.310
  Lrrc17 Mean-Ket: 3.227
  Mfsd4a Mean-Ket: 0.916
  Saa3 Mean-Ket: 1.654
  Tmem181b-ps Mean-Ket: 0.055
  Tmem1311 Mean-Ket: 0.804
  Tmprss11a Mean-Ket: 0.015
[2]
  Akap5 Change: Down
  Akap5 logFC: −0.320
  Eef1akmt3 Change: Up
  Eef1akmt3 logFC: 0.527
  Ilf2 Change: Up
  Ilf2 logFC: 0.398
  Lrrc17 Change: Down
  Lrrc17 logFC: −0.286
  Mfsd4a Change: Up
  Mfsd4a logFC: 0.460
  Saa3 Change: Up
  Saa3 logFC: 0.404
  Tmem181b-ps Change: Down
  Tmem181b-ps logFC: −0.195
  Tmem1311 Change: Up
  Tmem1311 logFC: 0.585
  Tmprss11a Change: Down
  Tmprss11a logFC: −0.121
Oaz1
  Change: Down
  Mean-Ket: 1.200
  logFC: −0.205
[3]
  Akap5 Mean-Ket: 3.517
  Eef1akmt3 Mean-Ket: 2.089
  Gsn Mean-Ket: 1.005
  Ilf2 Mean-Ket: 1.493
  Jpt2 Mean-Ket: 1.507
  Lrrc17 Mean-Ket: 2.805
  Map3k20 Mean-Ket: 2.351
  Mfsd4a Mean-Ket: 1.058
  Mmachc Mean-Ket: 3.286
  Pias4 Mean-Ket: 1.649
  Ppp1r7 Mean-Ket: 1.026
  Psmb11 Mean-Ket: 1.161
  Saa3 Mean-Ket: 1.909
  Sec14l1 Mean-Ket: 1.281
  Slc10a7 Mean-Ket: 1.538
  Snhg11 Mean-Ket: 2.917
  Supt7l Mean-Ket: 2.509
  Them4 Mean-Ket: 1.517
  Tulp1 Mean-Ket: 1.893
  Upf3b Mean-Ket: 3.197
  Vps8 Mean-Ket: 1.703
  Xcr1 Mean-Ket: 1.078
  Zfp229 Mean-Ket: 1.093
  Zfp827 Mean-Ket: 1.284
[4]
  Akap5 Change: Down
  Akap5 logFC: −0.393
  Eef1akmt3 Change: Up
  Eef1akmt3 logFC: 0.601
  Gsn Change: Up
  Gsn logFC: 0.254
  Ilf2 Change: Up
  Ilf2 logFC: 0.463
  Jpt2 Change: Up
  Jpt2 logFC: 0.265
  Lrrc17 Change: Down
  Lrrc17 logFC: −0.365
  Map3k20 Change: Up
  Map3k20 logFC: 0.245
  Mfsd4a Change: Up
  Mfsd4a logFC: 0.642
  Mmachc Change: Up
  Mmachc logFC: 0.154
  Pias4 Change: Up
  Pias4 logFC: 0.209
  Ppp1r7 Change: Up
  Ppp1r7 logFC: 0.231
  Psmb11 Change: Up
  Psmb11 logFC: 0.191
  Saa3 Change: Up
  Saa3 logFC: 0.574
  Sec14l1 Change: Up
  Sec14l1 logFC: 0.238
  Slc10a7 Change: Up
  Slc10a7 logFC: 0.192
  Snhg11 Change: Up
  Snhg11 logFC: 0.164
  Supt7l Change: Up
  Supt7l logFC: 0.169
  Them4 Change: Up
  Them4 logFC: 0.233
  Tulp1 Change: Up
  Tulp1 logFC: 0.207
  Upf3b Change: Up
  Upf3b logFC: 0.166
  Vps8 Change: Down
  Vps8 logFC: −0.217
  Xcr1 Change: Up
  Xcr1 logFC: 0.197
  Zfp229 Change: Up
  Zfp229 logFC: 0.199
